Assay results: ChEMBL document CHEMBL5126559, “Insights into the structure-activity relationship of a type III secretion system inhibitor, aurodox” (Bioorg Med Chem Lett, 2022)
Values after ≈ are worked out from the molar mass of the structure shown.

What was measured:
[1] = tested on: Escherichia coli; experiment: Antibacterial activity against enteropathogenic Escherichia coli; format: functional, organism-based
[2] = Inhibition of bacterial type III secretion system in enteropathogenic Escherichia coli

C/C=C\C=C\[C@@H]1O[C@](O)([C@H](CC)C(=O)NC/C=C/C=C(\C)[C@@H](OC)[C@@H](C)[C@@H]2O[C@H](/C=C/C=C/C=C(\C)C(=O)c3c(O)ccn(C)c3=O)[C@H](O)[C@@H]2O)[C@H](O)[C@H](O)C1(C)C gave an IC50 [1] of 32.8 µg/mL (≈ 40.4 µM) and an IC50 [2] of 1.42 µg/mL (≈ 1.75 µM).

CO[C@H](/C(C)=C/C=C/CN)[C@@H](C)[C@@H]1O[C@H](/C=C/C=C/C=C(\C)C(=O)c2c(O)ccn(C)c2=O)[C@H](O)[C@@H]1O gave an IC50 [1] greater than 100 µg/mL and an IC50 [2] greater than 100 µg/mL.

C/C=C\C=C\[C@@H]1O[C@](O)([C@H](CC)C(=O)NC/C=C/C=C(\C)[C@@H](OC)[C@@H](C)[C@@H]2O[C@H](/C=C/C=C/C=C(\C)C(=O)c3c(O)ccn(C)c3=O)[C@@H]3OC(=O)O[C@@H]32)[C@@H]2OC(=O)O[C@@H]2C1(C)C gave an IC50 [1] greater than 100 µg/mL and an IC50 [2] greater than 100 µg/mL.

Compound C/C=C\C=C\[C@@H]1O[C@](O)([C@H](CC)C(=O)NC/C=C/C=C(\C)[C@@H](OC)[C@@H](C)[C@@H]2O[C@H](/C=C/C=C/C=C(\C)C(=O)c3c(OC)ccn(C)c3=O)[C@H](O)[C@@H]2O)[C@H](O)[C@H](O)C1(C)C has an IC50 [1] greater than 100 µg/mL and an IC50 [2] of 4.82 µg/mL (≈ 5.84 µM).

For C/C=C\C=C\[C@@H]1O[C@](O)([C@H](CC)C(=O)NC/C=C/C=C(\C)[C@@H](OC)[C@@H](C)[C@@H]2O[C@H](/C=C/C=C/C=C(\C)C(=O)c3c([O-])ccn(C)c3=O)[C@H](O)[C@@H]2O)[C@H](O)[C@H](O)C1(C)C.[Na+], the IC50 [1] was 53.9 µg/mL and the IC50 [2] was 2.29 µg/mL.

Work on C/C=C\C=C\[C@@H]1O[C@]2(O)C(CC)C(=O)O[C@@H]2[C@H](O)C1(C)C (some centres not stated) yielded an IC50 [1] greater than 100 µg/mL and an IC50 [2] greater than 100 µg/mL.

Compound C/C=C\C=C\[C@@H]1O[C@](O)([C@H](CC)C(=O)NC/C=C/C=C(\C)[C@@H](OC)[C@@H](C)[C@@H]2O[C@H](/C=C/C=C/C=C(\C)C(=O)c3c(O)ccn(C)c3=O)[C@H](O)[C@@H]2O)[C@H](O)[C@H](O)C1(C)C.[MgH2] has an IC50 [1] of 30.6 µg/mL and an IC50 [2] of 1.75 µg/mL.

With C/C=C\C=C\[C@@H]1O[C@](O)([C@H](CC)C(=O)NC/C=C/C=C(\C)[C@@H](OC)[C@@H](C)[C@@H]2O[C@H](/C=C/C=C/C=C(\C)C(=O)c3c(OC(=O)c4ccccc4)ccn(C)c3=O)[C@H](O)[C@@H]2O)[C@H](O)[C@H](O)C1(C)C the IC50 [1] was greater than 100 µg/mL and the IC50 [2] was 1.45 µg/mL (≈ 1.58 µM).

With C/C=C\C=C\[C@@H]1O[C@](O)([C@H](CC)C(=O)NC/C=C/C=C(\C)[C@@H](OC)[C@@H](C)[C@@H]2O[C@H](/C=C/C=C/C=C(\C)C(=O)c3c(OS(=O)(=O)c4ccc(C)cc4)ccn(C)c3=O)[C@H](O)[C@@H]2O)[C@H](O)[C@H](O)C1(C)C the IC50 [1] was greater than 100 µg/mL and the IC50 [2] was 19 µg/mL (≈ 19.7 µM).

In the case of C/C=C\C=C\[C@@H]1O[C@](O)([C@H](CC)C(=O)NC/C=C/C=C(\C)[C@@H](OC)[C@@H](C)[C@@H]2O[C@H](/C=C/C=C/C=C(\C)C(=O)c3c(O)ccn(C)c3=O)[C@@H]3OC(=O)O[C@@H]32)[C@H](O)[C@H](O)C1(C)C, the IC50 [1] is reported as greater than 100 µg/mL and the IC50 [2] is reported as greater than 100 µg/mL.

For C/C=C\C=C\[C@@H]1O[C@](O)([C@H](CC)C(=O)NC/C=C/C=C(\C)[C@@H](OC)[C@@H](C)[C@@H]2O[C@H](/C=C/C=C/C=C(\C)C(=O)c3c(OC(=O)CC)ccn(C)c3=O)[C@H](O)[C@@H]2O)[C@H](O)[C@H](O)C1(C)C, the IC50 [1] was 31.1 µg/mL (≈ 35.9 µM) and the IC50 [2] was 1.19 µg/mL (≈ 1.37 µM).

C=CCOc1ccn(C)c(=O)c1C(=O)/C(C)=C/C=C/C=C/[C@H]1O[C@@H]([C@H](C)[C@H](OC)/C(C)=C/C=C/CNC(=O)[C@@H](CC)[C@@]2(O)O[C@@H](/C=C/C=C\C)C(C)(C)[C@@H](O)[C@H]2O)[C@@H](O)[C@H]1O showed an IC50 [1] greater than 100 µg/mL and an IC50 [2] of 4.16 µg/mL (≈ 4.89 µM).

For C/C=C\C=C\[C@@H]1O[C@](O)([C@H](CC)C(=O)NC/C=C/C=C(\C)[C@@H](OC)[C@@H](C)[C@@H]2O[C@H](/C=C/C=C/C=C(\C)C(=O)c3c(OC(C)=O)ccn(C)c3=O)[C@H](O)[C@@H]2O)[C@H](O)[C@H](O)C1(C)C, the IC50 [1] was 36.1 µg/mL (≈ 42.3 µM) and the IC50 [2] was 1.43 µg/mL (≈ 1.68 µM).

C/C=C\C=C\[C@@H]1O[C@](O)([C@H](CC)C(=O)NC/C=C/C=C(\C)[C@@H](OC)[C@@H](C)[C@@H]2O[C@H](/C=C/C=C/C=C(\C)C(=O)c3c(OS(C)(=O)=O)ccn(C)c3=O)[C@H](O)[C@@H]2O)[C@H](O)[C@H](O)C1(C)C showed an IC50 [1] greater than 100 µg/mL and an IC50 [2] of 4.65 µg/mL (≈ 5.23 µM).

In the case of C/C=C\C=C\[C@@H]1O[C@](O)([C@H](CC)C(=O)NC/C=C/C=C(\C)[C@@H](OC)[C@@H](C)[C@@H]2O[C@H](/C=C/C=C/C=C(\C)C(=O)c3c([O-])ccn(C)c3=O)[C@H](O)[C@@H]2O)[C@H](O)[C@H](O)C1(C)C.[Li+], the IC50 [1] is reported as 49.5 µg/mL and the IC50 [2] is reported as 2.52 µg/mL.

C/C=C\C=C\[C@@H]1O[C@](O)([C@H](CC)C(=O)NC/C=C/C=C(\C)[C@@H](OC)[C@@H](C)[C@@H]2O[C@H](/C=C/C=C/C=C(\C)C(=O)c3c(OCOC(N)=O)ccn(C)c3=O)[C@H](O)[C@@H]2O)[C@H](O)[C@H](O)C1(C)C gave an IC50 [1] greater than 100 µg/mL and an IC50 [2] of 10.4 µg/mL (≈ 11.8 µM).
